Results as given in patent publication US8163909B2, “Substituted hydroxyethyl amine compounds as beta-secretase modulators and methods of use” (Amgen Inc., priority 2007, dated 2012).
Like-named read-outs stand apart in the source and are kept apart here.

How the values were obtained:
CYP2D6 = CYP2D6 (Homo sapiens, UniProt P10635); test: CYP2D6 inhibition assay (bufuralol, pooled human liver microsomes)
[1] = Microsomal stability assay, rat liver microsomes;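 also: rat liver microsomes (0.25 mg/mL) with about 1 µM compound plus 1 mM NADPH, pH 7.4, 37 °C for 30 min, parent left measured by LC-MS/MS against 0 min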
CYP3A4 (CYP3A) = CYP3A4 (CYP3A) (Homo sapiens, UniProt P08684); test: in vitro; settings: microsomes, pH 7.4;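 also: inhibition of CYP3A-mediated 1-hydroxymidazolam formation after 10 min incubation with NADPH, quantified by HPLC MS relative to metabolite produced without test compound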
CYP3A4 (CYP3A), sequence (P08684 2-503): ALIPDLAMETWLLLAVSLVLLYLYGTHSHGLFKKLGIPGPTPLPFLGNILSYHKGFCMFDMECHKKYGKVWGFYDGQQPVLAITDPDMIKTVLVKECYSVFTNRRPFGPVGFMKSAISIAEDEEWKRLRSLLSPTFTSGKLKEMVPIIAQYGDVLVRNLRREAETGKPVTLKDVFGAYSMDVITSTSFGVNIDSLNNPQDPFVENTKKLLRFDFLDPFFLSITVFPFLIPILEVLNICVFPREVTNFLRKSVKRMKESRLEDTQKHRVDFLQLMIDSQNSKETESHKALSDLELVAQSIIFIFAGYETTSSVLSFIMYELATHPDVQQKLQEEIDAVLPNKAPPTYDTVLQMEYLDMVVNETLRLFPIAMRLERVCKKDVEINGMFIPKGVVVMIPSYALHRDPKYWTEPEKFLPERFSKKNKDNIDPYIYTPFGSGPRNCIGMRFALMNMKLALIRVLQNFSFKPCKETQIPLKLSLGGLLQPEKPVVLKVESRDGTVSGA

[2] = Microsomal stability assay, human liver microsomes;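 also: pooled human liver microsomes at 0.25 mg/mL with 1 µM compound and NADPH at 37 °C, pH 7.4, for 30 min, unchanged parent quantified by LC-MS/MS against the 0 min sample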
[3] = system: Aβ40 in conditioned medium of cells stably expressing Amyloid Precursor Protein (APP); test: In vitro BACE cell-based assay (Aβ40 in conditioned medium, sandwich ELISA); settings: Homo sapiens, HEK293, HEK cells;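 also: compounds added as a dilution series, secreted peptide quantified by europium time-resolved fluorescence readout, potency fitted from percent of control versus compound concentration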
[4] = target: Beta Secretase enzyme (BACE) (Homo sapiens, UniProt P56817); test: In vitro enzymatic BACE FRET (fluorescence resonance energy transfer) assay; type: biochemical;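 also: fluorescence read after 1 h with 50 nM quenched peptide substrate spanning the BACE cleavage site, in pH 4.2 acetate buffer containing 10% DMSO and nonionic detergent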
Beta Secretase enzyme (BACE), sequence (P56817 46-501): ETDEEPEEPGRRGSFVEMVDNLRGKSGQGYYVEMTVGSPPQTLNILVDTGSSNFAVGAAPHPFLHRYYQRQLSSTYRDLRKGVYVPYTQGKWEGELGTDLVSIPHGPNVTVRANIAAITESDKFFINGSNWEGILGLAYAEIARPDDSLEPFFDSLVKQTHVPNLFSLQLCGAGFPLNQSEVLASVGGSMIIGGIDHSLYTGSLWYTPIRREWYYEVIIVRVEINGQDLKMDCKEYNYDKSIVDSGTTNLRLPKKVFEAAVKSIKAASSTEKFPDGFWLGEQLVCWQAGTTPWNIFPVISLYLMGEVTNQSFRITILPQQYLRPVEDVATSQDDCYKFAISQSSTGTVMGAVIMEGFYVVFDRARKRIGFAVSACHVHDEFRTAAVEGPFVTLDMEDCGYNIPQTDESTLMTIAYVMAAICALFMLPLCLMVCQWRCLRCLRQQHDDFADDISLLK

[5] = 2D6 IC50 (uM), CYP enzyme inhibition
[6] = BACE enzyme assay, read-out: BACE1 FRET assay
[7] = read-out: HEK cell assay (IC50)
[8] = read-out: BACE1 FRET assay (IC50)

CYP2D6, sequence (P10635 whole entry): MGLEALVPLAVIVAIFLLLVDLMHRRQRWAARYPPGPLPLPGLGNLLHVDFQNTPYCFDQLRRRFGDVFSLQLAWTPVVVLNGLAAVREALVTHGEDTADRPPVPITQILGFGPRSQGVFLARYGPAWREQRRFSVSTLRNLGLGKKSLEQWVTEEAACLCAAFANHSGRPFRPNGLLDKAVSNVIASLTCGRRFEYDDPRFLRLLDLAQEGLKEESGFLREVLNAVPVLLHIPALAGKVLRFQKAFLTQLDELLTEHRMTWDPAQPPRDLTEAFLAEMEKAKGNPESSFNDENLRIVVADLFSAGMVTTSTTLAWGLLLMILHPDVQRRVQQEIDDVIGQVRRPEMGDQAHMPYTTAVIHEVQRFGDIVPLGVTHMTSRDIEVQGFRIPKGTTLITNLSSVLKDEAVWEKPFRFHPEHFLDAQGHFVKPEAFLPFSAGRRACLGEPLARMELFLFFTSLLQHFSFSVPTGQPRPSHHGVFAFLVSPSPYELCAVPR

SMILES	IC50 (CYP2D6; [5])	RLM ([1]; rat liver microsomal data)	IC50 (CYP3A4 (CYP3A))	HLM ([2]; human liver microsomal data)	IC50 ([3]; read-out: HEK cell assay)	IC50 [4, 6]	IC50 (CYP2D6; 2D6 IC50, CYP2D6 inhibition)	RLM ([1]; rat liver microsomes)	HLM ([2]; human liver microsomes)	IC50 [3, 7]	IC50 [4, 8]
CC(C)Cc1cnc2c(c1)[C@@H](NC[C@@H](O)[C@H](Cc1ccc3c(c1)OCO3)NC(=O)[C@H]1CCCO1)CC1(CCC1)O2 [compound 551]	5.7 µM	112 µL/min/mg	100 nM	33 µL/min/mg	367 nM	44 nM					
CC(C)Cc1cnc2c(c1)[C@@H](NC[C@@H](O)[C@H](Cc1ccc3c(c1)OCO3)NC(=O)[C@H](C)F)CC1(CCC1)O2 [compound 552]	2.3 µM	253 µL/min/mg	200 nM	73 µL/min/mg	369 nM	49 nM					
CO[C@H](C)C(=O)N[C@@H](Cc1ccc2c(c1)OCO2)[C@H](O)CN[C@@H]1c2cc(CC(C)(C)C)cnc2OC2(CCC2)[C@@H]1F [compound 554]	6.5 µM	173 µL/min/mg	200 nM	63 µL/min/mg	1020 nM	57 nM					
CO[C@H](C)C(=O)N[C@@H](Cc1ccc2c(c1)OCO2)[C@H](O)CN[C@H]1CC2(CCC2)Oc2ccc(C[C@H](C)F)cc21 [compound 555]	0.9 µM	543 µL/min/mg	400 nM	269 µL/min/mg	> 10000 nM	3420 nM					
CO[C@H](C)C(=O)N[C@@H](Cc1ccc2c(c1)OCO2)[C@H](O)CN[C@H]1CC2(CCC2)Oc2ccc(C[C@@H](C)F)cc21 [compound 556]	1 µM	353 µL/min/mg	300 nM	211 µL/min/mg	446 nM	718 nM					
COCC(=O)N[C@@H](Cc1ccc2c(c1)OCO2)[C@H](O)CN[C@H]1CC2(CCC2)Oc2ccc(C[C@H](C)F)cc21 [compound 557]	0.5 µM	344 µL/min/mg	300 nM	193 µL/min/mg	> 10000 nM	3790 nM					
COCC(=O)N[C@@H](Cc1cccc(F)c1)[C@H](O)CN[C@H]1CC2(CCC2)Oc2ccc(C[C@@H](C)F)cc21 [compound 559]	1.1 µM	829 µL/min/mg	7100 nM	706 µL/min/mg	38 nM	27 nM					
COCC(=O)N[C@@H](Cc1cc(F)cc(F)c1)[C@H](O)CN[C@H]1CC2(CCC2)Oc2c(-c3ccncc3)cc(Cl)cc21 [compound 560]	0.4 µM	829 µL/min/mg	200 nM	209 µL/min/mg	58 nM	49 nM					
CO[C@H](C)C(=O)N[C@@H](Cc1cc(F)cc(F)c1)[C@H](O)CN[C@H]1CC2(CCC2)Oc2c(-c3ccncc3)cc(Cl)cc21 [compound 561]	0.4 µM	426 µL/min/mg	100 nM	113 µL/min/mg	262 nM	92 nM					
COCC(=O)N[C@@H](Cc1ccc(F)cc1)[C@H](O)CN[C@H]1CC2(CCC2)Oc2c(-c3ccncc3)cc(CC(C)(C)C)cc21 [compound 562]	3.6 µM	60 µL/min/mg	100 nM	24 µL/min/mg	21 nM	27 nM					
COCC(=O)N[C@@H](Cc1cccc(F)c1)[C@H](O)CN[C@H]1CC2(CCC2)Oc2c1cc([C@H](n1ccnc1)C(C)(C)C)cc2-n1ccnc1 [compound 563]	0.4 µM	40 µL/min/mg	100 nM	40 µL/min/mg	> 10000 nM	12000 nM					
CC(C)OCC(=O)N[C@@H](Cc1ccc(F)cc1)[C@H](O)CN[C@H]1CC2(CCC2)Oc2ncc(CC(C)(C)C)cc21 [compound 565]	23.8 µM	829 µL/min/mg	600 nM	921 µL/min/mg	267 nM	49 nM					
CC[C@@H](OC)C(=O)N[C@@H](Cc1ccc(F)cc1)[C@H](O)CN[C@H]1CC2(CCC2)Oc2ncc(CC(C)(C)C)cc21 [compound 566]	13 µM	590 µL/min/mg	300 nM	392 µL/min/mg	165 nM	26 nM					
CO[C@H](C)C(=O)N[C@@H](Cc1cccc(F)c1)[C@H](O)CN[C@H]1CC2(CCC2)Oc2c(-c3ccncc3)cc(CC(C)(C)O)cc21 [compound 567]	2.2 µM	120 µL/min/mg	100 nM	67 µL/min/mg	9 nM	39 nM					
COCC(=O)N[C@@H](Cc1cc(F)cc(F)c1)[C@H](O)CN[C@H]1CC2(CCC2)Oc2c1cc(CC(C)(C)C)nc2Nc1cccnc1 [compound 568]	9.3 µM	304 µL/min/mg	200 nM	214 µL/min/mg	19 nM	25 nM					
COCC(=O)N[C@@H](Cc1ccc(F)cc1)[C@H](O)CN[C@H]1CC2(CCC2)Oc2ncc(C(F)(F)C(C)(C)C)cc21 [compound 569]	≥ 27 µM	423 µL/min/mg	700 nM	238 µL/min/mg	992 nM	165 nM					
CC(=O)N[C@@H](Cc1ccc(F)cc1)[C@H](O)CN[C@H]1CC2(CCC2)Oc2ncc(C(F)(F)C(C)(C)C)cc21 [compound 570]	7.1 µM	162 µL/min/mg	800 nM	101 µL/min/mg	405 nM	136 nM					
COCC(=O)N[C@@H](Cc1cc(F)cc(F)c1)[C@H](O)CN[C@H]1CC2(CCC2)Oc2c1cc(CC(C)(C)C)nc2Nc1ccncc1 [compound 571]	2.3 µM	193 µL/min/mg	100 nM	142 µL/min/mg	3 nM	53 nM					
CC[C@H](OC)C(=O)N[C@@H](Cc1ccc(F)cc1)[C@H](O)CN[C@H]1CC2(CCC2)Oc2ncc(CC(C)(C)C)cc21 [compound 572]	8.1 µM	569 µL/min/mg	200 nM	290 µL/min/mg	94 nM	102 nM					
CC(=O)N[C@@H](Cc1ccc2c(c1)OCO2)[C@H](O)CN[C@H]1CC2(CCC2)Oc2ncc(C(F)(F)C(C)(C)C)cc21 [compound 574]	3.5 µM	146 µL/min/mg	200 nM	46 µL/min/mg	606 nM	220 nM					
COCC(=O)N[C@@H](Cc1ccc2c(c1)OCO2)[C@H](O)CN[C@H]1CC2(CCC2)Oc2ncc([C@H]3CC3(C)C)cc21 [compound 576]			100 nM				2.7 µM	209 µL/min/mg	31 µL/min/mg	249 nM	328 nM
CO[C@H](C)C(=O)N[C@@H](Cc1ccc2c(c1)OCO2)[C@H](O)CN[C@H]1CC2(CCC2)Oc2ncc([C@H]3CC3(C)C)cc21 [compound 580]			100 nM				4.4 µM	186 µL/min/mg	42 µL/min/mg	776 nM	357 nM
CC(=O)N[C@@H](Cc1cc(F)cc(F)c1)[C@H](O)CN[C@H]1CC2(CCC2)Oc2c(-c3ccncc3)cc(Cl)cc21 [compound 582]			100 nM				0.4 µM	829 µL/min/mg	97 µL/min/mg	57 nM	24 nM
